From patent US11491178B2, “Chitosan covalently linked with small molecule integrin antagonist for targeted delivery” (Hoffmann-La Roche Inc., priority 2012, dated 2022)
Where two headings read alike, the source gives them in different places.

Target: T1, VLA-4 (α4β1) (Homo sapiens, UniProt P05556+P13612)
T1 construct: Jurkat cells express high levels of VLA-4 on their membrane surface; host or cells: Jurkat Clone E6-1
Assay: VLA-4 (α4β1) binding assay: Jurkat cell adhesion to VCAM-1-coated plates
Format: cell-based
Description: Chitosan covalently linked with small molecule α4β1 antagonists having the general structure of formula IA below were assessed for their α4β1 (VLA-4) binding affinity:
The following adhesion assay has been reported previously and used in this invention with minor modification. See U.S. Pat. Nos. 6,229,011 and 6,380,387 both of which are incorporated herein by reference in their entirety. […] Each assay was conducted in a 96-well plate with VCAM-1 used as the counter ligand for the cells (i.e., VCAM-1 was bound to the surface of the wells).
More specifically, 96-well high-binding F96 Maxisorp immuno microtiter plates (Nunc) were coated overnight with 25 ng/well of VCAM-1. […]
To assess VLA-4 inhibition by the VLA-4 targeted chitosans (from the examples), Jurkat cells (expressing high levels of VLA-4) were added to the VCAM-1-coated plates to a final concentration of 2×10^5 cells/well in 96-well plates and allowed to incubate with the test chitosans (from the examples) for 45 minutes at 37° C. After removing unbound cells by gently washing the wells with PBS, the fluorescence signal from the bound cells was read on a Tecan Safire2 microplate reader at 450 nm. Points were plotted and the IC50s of each derivatized chitosan polymer were determined by regression analysis using the linear portion of the concentration-response curve.

T1 sequence (P13612 34-1032): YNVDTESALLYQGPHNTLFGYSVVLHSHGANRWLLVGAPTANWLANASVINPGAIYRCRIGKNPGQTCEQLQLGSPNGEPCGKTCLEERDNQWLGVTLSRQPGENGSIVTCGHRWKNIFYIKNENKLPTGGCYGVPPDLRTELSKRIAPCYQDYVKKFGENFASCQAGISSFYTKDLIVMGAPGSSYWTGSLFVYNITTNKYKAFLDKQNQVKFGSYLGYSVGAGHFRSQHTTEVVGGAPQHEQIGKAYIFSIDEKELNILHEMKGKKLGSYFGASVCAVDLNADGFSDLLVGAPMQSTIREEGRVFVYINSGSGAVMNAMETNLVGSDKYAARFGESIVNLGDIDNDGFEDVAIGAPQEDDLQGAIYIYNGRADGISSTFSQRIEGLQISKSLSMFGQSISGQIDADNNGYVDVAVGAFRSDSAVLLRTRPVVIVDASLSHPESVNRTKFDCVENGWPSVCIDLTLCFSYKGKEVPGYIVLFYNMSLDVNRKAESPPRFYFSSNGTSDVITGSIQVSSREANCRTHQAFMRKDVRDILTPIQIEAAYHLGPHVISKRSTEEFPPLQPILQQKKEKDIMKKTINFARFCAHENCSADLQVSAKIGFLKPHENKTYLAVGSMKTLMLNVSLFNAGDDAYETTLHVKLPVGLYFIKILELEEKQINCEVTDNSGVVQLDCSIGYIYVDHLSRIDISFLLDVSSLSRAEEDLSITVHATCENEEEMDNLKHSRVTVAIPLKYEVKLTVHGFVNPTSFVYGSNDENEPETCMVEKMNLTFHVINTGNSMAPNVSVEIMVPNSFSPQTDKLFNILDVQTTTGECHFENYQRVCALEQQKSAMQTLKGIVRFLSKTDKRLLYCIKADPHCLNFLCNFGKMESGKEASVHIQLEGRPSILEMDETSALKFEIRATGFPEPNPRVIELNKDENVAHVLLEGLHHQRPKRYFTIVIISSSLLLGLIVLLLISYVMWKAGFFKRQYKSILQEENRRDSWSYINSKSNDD
T1 sequence (P05556 21-798): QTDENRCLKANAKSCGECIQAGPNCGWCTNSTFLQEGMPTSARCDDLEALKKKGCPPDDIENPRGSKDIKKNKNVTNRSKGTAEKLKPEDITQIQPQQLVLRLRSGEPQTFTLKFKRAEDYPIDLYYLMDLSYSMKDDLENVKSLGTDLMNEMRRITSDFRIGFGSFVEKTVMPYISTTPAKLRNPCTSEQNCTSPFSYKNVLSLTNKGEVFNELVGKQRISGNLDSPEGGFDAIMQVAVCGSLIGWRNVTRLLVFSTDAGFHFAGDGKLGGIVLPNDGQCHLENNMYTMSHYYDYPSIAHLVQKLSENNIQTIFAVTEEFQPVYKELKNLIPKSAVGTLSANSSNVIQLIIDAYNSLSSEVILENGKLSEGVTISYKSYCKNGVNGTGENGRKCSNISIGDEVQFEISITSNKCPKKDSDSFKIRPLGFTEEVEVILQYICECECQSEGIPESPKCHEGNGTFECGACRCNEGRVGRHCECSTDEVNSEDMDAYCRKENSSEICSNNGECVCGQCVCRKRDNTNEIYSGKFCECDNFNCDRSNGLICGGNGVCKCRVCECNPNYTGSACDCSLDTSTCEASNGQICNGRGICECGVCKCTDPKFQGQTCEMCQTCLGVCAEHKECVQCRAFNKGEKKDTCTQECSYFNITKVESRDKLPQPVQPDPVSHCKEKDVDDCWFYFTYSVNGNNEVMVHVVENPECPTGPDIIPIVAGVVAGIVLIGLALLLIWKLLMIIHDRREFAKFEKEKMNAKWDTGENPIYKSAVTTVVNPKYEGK

Cc1cccc(Cl)c1C(=O)NC(Cc1ccc(NC(=O)c2c(Cl)cccc2Cl)cc1)C(=O)O (centres unmarked) [Control (27), reference compound]
IC50 (Jurkat cells on VCAM-1-coated plates, Mn2+ activated, 45 minutes at 37° C., Table 1, read-out: Binding IC50): 4 nM
IC50 (control compound in the Jurkat/VCAM-1 adhesion assay, read-out: IC50): ~12 nM
